Experimental data from patent US20170165236A1, “SELECTIVE SPHINGOSINE 1 PHOSPHATE RECEPTOR MODULATORS AND COMBINATION THERAPY THEREWITH” (Celgene International II Sàrl, priority 2013, published 2017).

How the values were obtained:
S1P1/EDG1 = S1P1/EDG1 (Homo sapiens, UniProt P21453); assay: S1P1 CRE-bla CHOK1 reporter assay, inhibition of Forskolin induced cAMP; format: cell-based; settings: CRE-bla CHOK1 cells, 2 μM Forskolin; read-out: S1P1 ACTIVITY (agonist activity)
Experimental: Generation of S1P1-Mediated Inhibition of cAMP Reporter Assay
S1P1/pcDNA3.1 was transfected into the CRE-bla CHO K1 (Invitrogen) cell line, and stable single cell clones were selected using standard techniques.
S1P1 CRE-Bla CHOK1 Reporter Assay—Characterization of S1P1 Agonists
Cells were seeded into 384-well black wall/clear bottom plates at 10^4 cells/well/19.5 μl assay media (DMEM-phenol free, 0.5% charcoal/dextran stripped serum, 2 mM glutamine, 0.1 mM NEAA, 1 mM Na-Pyruvate, 25 mM Hepes) and incubated for 18 hrs at 37° C. in 5% CO2. Dose response curves (10-point) were generated in 10 mM Hepes, 0.1% Pluronic F127, in the presence of Forskolin. Cells were treated with 0.5 μl compound in the presence of 2 μM Forskolin for 4 hrs at 37° C. The FRET-based β-lactamase fluorescent substrate (LiveBLAzer™-FRET B/G Loading Kit CC4-AM; Invitrogen) was prepared according to manufacturer's directions, and incubated with cells for 2 hrs at room temperature. […] Data was analyzed by non-linear regression to determine the EC50 for inhibition of Forskolin induced cAMP.

S1P1 R120A/E121A = S1P1 R120A/E121A (Homo sapiens, UniProt P21453, E121A/R120A); assay: Phosphorylated-ERK1/2 In Cell Western, S1P1 mutant R120A/E121A; format: cell-based
S1P1 R120A/E121A, sequence (P21453 whole entry R120A/E121A): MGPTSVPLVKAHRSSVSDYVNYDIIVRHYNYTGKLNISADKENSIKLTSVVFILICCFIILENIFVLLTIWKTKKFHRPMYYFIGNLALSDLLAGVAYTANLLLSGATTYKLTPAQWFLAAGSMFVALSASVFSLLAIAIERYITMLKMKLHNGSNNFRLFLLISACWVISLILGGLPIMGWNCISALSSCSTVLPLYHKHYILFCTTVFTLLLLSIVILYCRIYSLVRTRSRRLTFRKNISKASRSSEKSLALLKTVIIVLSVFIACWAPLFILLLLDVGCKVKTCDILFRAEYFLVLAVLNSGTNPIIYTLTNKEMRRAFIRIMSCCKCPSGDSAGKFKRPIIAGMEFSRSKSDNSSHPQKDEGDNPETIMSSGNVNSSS
Experimental: (§1) Quick-change mutagenesis with PfuTurbo DNA polymerase (Stratagene) was conducted using S1P1/pcDNA3.1 (Missouri S&T cDNA Resource Centre) as the template. Primers were as follows: […]
(§2) PCR conditions were 15 cycles with the following parameters: 95° C. 30 sec, 58° C. 30 sec, 68° C. for 60 sec. All constructs were sequence verified.
(§3) CHOK1 cells were transfected using Fugene (Roche). Stably expressing mixed pools were selected with 2 mg/ml G418. Expression of functional S1P1/EDG1 receptor was confirmed by cell surface FACS with a S1P1 antibody (R&D Systems, clone 218713). Stable pools were seeded at 40,000 cells/well in a clear bottom 96-well tray, and incubated at 37° C. in 5% CO2 for 18 hrs. Cells were serum-starved in FreeStyle 293 medium (Invitrogen) for 4-6 h, then incubated for 5 min with a dose response of compound, in duplicate. Cells were fixed with 4% paraformaldehyde for 20 min, permeabilized with 0.1% Triton X-100 in PBS (4×5 min washes) and blocked for 1 h in Odyssey Blocking Buffer (LI-COR). All incubations were at room temperature. Cells were incubated for 18 h at 4° C. in Rabbit anti-Phospho-ERK1/2 (Cell Signaling #4377) and Mouse anti-ERK1/2 (Cell Signaling #9107) both diluted 1:800 in Odyssey Blocking Buffer. […] Data was analyzed by non-linear regression using GraphPad Prism to determine the EC50 of binding.

S1P1 = S1P1 (Homo sapiens, UniProt P21453); assay: Phosphorylated-ERK1/2 In Cell Western, wild type S1P1 in CHOK1; format: cell-based
S1P1, sequence (P21453 whole entry): as the sequence (P21453 whole entry R120A/E121A) above, with A120R, A121E counted along it
Experimental: as §3, with “Buffer. Plates were washed with 0.1% Tween-20 in PBS and then incubated with Odyssey Blocking Buffer containing IRDye 680-labeled goat anti-rabbit antibody (#926-32221; diluted 1/500) and IRDye 800CW-labeled goat anti-mouse antibody (#926-32210; diluted 1/1000). Plates were washed with 0.1% Tween-20 in PBS, all liquid was removed from the wells and the plates were scanned using a LICOR Odyssey scanner.” for “Buffer.”

S1P1 N101A = S1P1 N101A (Homo sapiens, UniProt P21453, N101A); assay: Phosphorylated-ERK1/2 In Cell Western, S1P1 mutant N101A; format: cell-based
S1P1 N101A, sequence (P21453 whole entry N101A): as the sequence (P21453 whole entry R120A/E121A) above, with N101A, A120R, A121E counted along it
Experimental: as §1, §2, §3

S1P1 W269L = S1P1 W269L (Homo sapiens, UniProt P21453, W269L); assay: S1P1 mutagenesis analysis, W269L mutant; format: cell-based
S1P1 W269L, sequence (P21453 whole entry W269L): as the sequence (P21453 whole entry R120A/E121A) above, with A120R, A121E, W269L counted along it
Experimental: as §3, with “Buffer. Plates were washed with 0.1% Tween-20 in PBS and then incubated with Odyssey Blocking Buffer containing IRDye 680-labeled goat anti-rabbit antibody (#926-32221; diluted 1/500) and IRDye 800CW-labeled goat anti-mouse antibody (#926-32210; diluted 1/1000). Plates were washed with 0.1% Tween-20 in PBS, all liquid was removed from the wells and the plates were scanned using a LICOR Odyssey scanner.” for “Buffer.”, “binding. […]” for “binding.”

[1] = test system: CD4 or CD8 positive T cells; settings: racemic compound 253; data stated as reported by Gonzalez-Cabrera et al. 2008; cited from earlier work
[2] = test system: influenza A virus (A/WSN/33); assay: Influenza A H1N1 model in mice; settings: mouse, in vivo

S1P1/EDG1, sequence (P21453 whole entry): as the sequence (P21453 whole entry R120A/E121A) above, with A120R, A121E counted along it

SMILES | EC50 (S1P1/EDG1) [nM] | other results
CC(C)Oc1ccc(-c2nc(-c3cccc4c3CC[C@H]4NS(C)(=O)=O)no2)cc1C#N [Compound 70] | 0.05 to 0.5 | 
CC(C)Oc1ccc(-c2nc(-c3cccc4c3CC[C@@H]4NS(=O)(=O)CCN3CCC(O)CC3)no2)cc1C#N [Compound 178] | 0.5 to 5 | 
CC(C)Oc1ccc(-c2nc(-c3cccc4c3CC[C@@H]4NC(=O)N(C)C)no2)cc1C#N [Compound 120] | 0.05 to 0.5 | 
CC(C)Oc1ccc(-c2nc(-c3cccc4c3CC[C@H]4NCC(=O)N3CCOCC3)no2)cc1C#N [Compound 59] | 0.05 to 0.5 | 
CC(C)Oc1ccc(-c2nc(-c3cccc4c3CCC4NCCC(=O)O)no2)cc1C#N (racemic) [Compound 38] |  | effect of S1P1 mutation on binding (S1P1 R120A/E121A): diminishes binding; S1P1 agonism, phosphorylation of ERK1/2 (S1P1): induce phosphorylation of ERK1/2; effect of S1P1 mutation on binding (S1P1 N101A): no effect on binding; effect of S1P1 mutation on binding (S1P1 W269L): abolishes binding
CC(C)Oc1ccc(-c2nc(-c3cccc4c3CC[C@H]4NS(=O)(=O)CCN3CCC3)no2)cc1C#N [Compound 168] | 0.05 to 0.5 | 
CC(C)Oc1ccc(-c2nc(-c3cccc4c3CC[C@@H]4N)no2)cc1C#N [Compound 50, (S)-5-(3-(1-amino-2,3-dihydro-1H-inden-4-yl)-1,2,4-oxadiazol-5-yl)-2-isopropoxy-benzonitrile] |  | effect of S1P1 mutation on binding (S1P1 R120A/E121A): no influence on the binding; S1P1 agonism, phosphorylation of ERK1/2 (S1P1): induce phosphorylation of ERK1/2; effect of S1P1 mutation on binding (S1P1 N101A): reduces the binding; effect of S1P1 mutation on binding (S1P1 W269L): abolishes binding
CCOc1ccc(-c2nc(-c3cccc4c3CCC4NCCO)no2)cc1OCC (racemic) [Compound 253, (+/−)-2-((4-(5-(3,4,DIETHOXYPHENYL)-1,2,4-OXADIAZOL-3-YL)-2,3-DIHYDRO-1H-INDEN-1-YL) AMINO)ETHANOL] |  | Mouse Lymphopenia (AUEC) [1]: 116
CNCCS(=O)(=O)N[C@@H]1CCc2c(-c3noc(-c4ccc(OC(C)C)c(C#N)c4)n3)cccc21 [Compound 74] | 0.05 to 0.5 | 
CCOc1ccc(-c2nc(-c3cccc4c3CC[C@H]4O)no2)cc1[N+](=O)[O-] [Compound 11] | 0.5 to 5 | 
CC(C)Oc1ccc(-c2nc(-c3cccc4c3CC[C@H]4NC(C)C(=O)N(C)C)no2)cc1C#N (stereo partly shown) [Compound 58] | 0.5 to 5 | 
CC(C)Oc1ccc(-c2nc(-c3cccc4c3CC[C@H]4NC(=O)c3ccc(Br)cc3)no2)cc1C#N [Compound 122] | > 5 | 
COCCN[C@@H]1CCc2c(-c3noc(-c4ccc(OC(C)C)c(C#N)c4)n3)cccc21 [Compound 88] | 0.5 to 5 | 
CC(C)Oc1ccc(-c2nc(-c3cccc4c3CC[C@H]4N(C)CCO)no2)cc1C#N [Compound 111] | 0.5 to 5 | 
CC(C)Oc1ccc(-c2nc(-c3cccc4c3CC[C@@H]4NS(=O)(=O)CCN3CC(O)C3)no2)cc1C#N [Compound 181] | 0.05 to 0.5 | 
CC(C)Oc1ccc(-c2nc(-c3cccc4c3CC[C@@H]4N(CCO)S(=O)(=O)c3ccccc3)no2)cc1C#N [Compound 117] | > 5 | 
CC(C)Oc1ccc(-c2nc(-c3cccc4c3CC[C@@H]4N(C)CC(=O)N(C)C)no2)cc1C#N [Compound 115] | 0.5 to 5 | 
CC(C)Oc1ccc(-c2nc(-c3cccc4c3CC[C@H]4NCCO)no2)cc1C#N [Compound 85, (R)-5-(3-(1-(2-hydroxyethylamino)-2,3-dihydro-1H-inden-4-yl)-1,2,4-oxadiazol-5-yl)-2-isopropoxybenzonitrile] |  | suppression of cellular infiltrate into the lungs [2]: 40%
CC(C)Oc1ccc(-c2nc(-c3cccc4c3CC[C@@H]4NS(=O)(=O)CCN3CCNCC3)no2)cc1C#N [Compound 179] | 0.5 to 5 | 
CC(C)Oc1ccc(-c2nc(-c3cccc4c3CCC4NC[C@H](O)CO)no2)cc1C#N (stereo partly shown) [Compound 41] | 0.05 to 0.5 | 
CC(C)Oc1ccc(-c2nc(-c3cccc4c3CC[C@H]4NS(=O)(=O)CCN(C)C)no2)cc1C#N [Compound 77] | 0.05 to 0.5 | 
CCOc1ccc(-c2nc(-c3cccc4c3CC[C@@H]4O)no2)cc1[N+](=O)[O-] [Compound 12] | 0.5 to 5 | 
CC(C)Oc1ccc(-c2nc(-c3cccc4c3CC[C@@H]4NS(=O)(=O)CCNCCO)no2)cc1C#N [Compound 180] | 0.05 to 0.5 | 
CC(C)Oc1ccc(-c2nc(-c3cccc4c3CCC4NC[C@@H](C)O)no2)cc1C#N (stereo partly shown) [Compound 42] | 0.5 to 5 | 
CC(C)Oc1ccc(-c2nc(-c3cccc4c3CCC4NC[C@H](C)O)no2)cc1C#N (stereo partly shown) [Compound 43] | 0.05 to 0.5 | 
